From US20230044257A1, “COMPOSITIONS AND METHODS FOR ENHANCED UPTAKE OF ACTIVE INGREDIENTS FOR ANIMAL HEALTH AND NUTRITION” (AgroSpheres, Inc., priority 2019, published 2023)

Assays:
E. coli = conditions: cited from earlier work
[1] = test system: Pseudomonas aeruginosa ATCC 15442; assay: Zone of inhibition test (Kirby-Bauer); type: cell-based; conditions: ATCC15442, read-out: growth inhibition compared to positive control (Vancomycin 30 μg/mL)
Protocol: (§1) In this example, the zone of inhibition test, also called a Kirby-Bauer Test, was conducted to measure antibiotic resistance of eugenol encapsulated into AgriCell. Approximately 1×10^8 cells from a selected bacterial strain (Escherichia coli ATCC 25922 and Pseudomonas aeruginosa ATCC 15442) were spread over an agar plate using a sterile swab, then incubated in the presence of the antimicrobial agent (adsorbed over a paper disc). If the bacterial strain is susceptible to the antimicrobial agent, then a zone of inhibition appears on the agar plate, whereas if the selected bacterial strain is resistant to the antimicrobial agent, then no zone is evident.

[2] = test system: Escherichia coli ATCC 25922; assay: Zone of inhibition test (Kirby-Bauer); type: cell-based; conditions: ATCC25922, read-out: growth inhibition compared to positive control (Vancomycin 30 μg/mL)
Protocol: as §1

[3] = Thermal degradation of essential oils at 40° C.; type: physicochemical; conditions: day 7 at 40° C., diluted 1:10 in deionized water
Protocol: (§2) AgriCell-encapsulated EOs (200 mg/mL of EO loaded with 200 mg/mL of AgriCell) were diluted 1:10 in deionized water (total volume 1000 μL, 14 replicates for each EO) and the solutions were left at 40° C. for a total period of 7 days. One replicate of each EO per treatment was collected daily and tested for EO content. Results were reported as concentration of EO as function of time for each stability condition.

[4] = Encapsulation (loading) efficacy of essential oils / active ingredients into AgriCell; type: physicochemical
Protocol: After AgriCells are purified, the concentrated AgriCell paste or dry lyophilized powder is loaded with EOs. If dry, the AgriCells are first homogenized into a finer powder through mechanical homogenization. A stock solution from each EO is prepared in ethanol at 100 mg/mL-200 mg/mL. Lyophilized AgriCells would then be suspended in a solution with the EO solution at a ratio of 1 g of dry AgriCells to 10 mL of EO solution. Once resuspended, the ethanol is allowed to evaporate overnight, leaving behind EO encapsulated AgriCells in the process. After this overnight period, encapsulated AgriCells are removed from the beaker, and the EO-encapsulated AgriCell powder is mechanically homogenized. This encapsulated product is ready for resuspension in its appropriate medium. Loading efficacy was measured and/or calculated as percentage of EO loaded into AgriCell after extraction with ethanol 100% v/v and quantification by UV-Vis spectroscopy. Eugenol and thymol were quantified at 280 nm, whereas pyrethrum was quantified at 230 nm against its respective calibration standard curve. Also, Genistein was quantified at […], whereas eugenol was quantified at 280 nm against its respective calibration standard curve.

[5] = Auto-oxidative degradation of essential oils under UV and Vis light; type: physicochemical; conditions: after 7 days under UV and Vis light
Protocol: as §2, with “under UV radiation” for “at 40° C.”, “content by UV-Vis spectroscopy as described in Example 2.” for “content.”

E. coli strain ATCC 8739 = assay: Bacterial agglutination (transmittance at 450 nm); type: cell-based; conditions: 300 μg/mL
Protocol: E. coli strain ATCC 8739 (which causes disease outside of the intestinal tract and its highly virulent in chickens) from a frozen stock was cultured in tryptose broth (10 g of tryptose, 2.5 g of sodium chloride, 0.5 g of dextrose, and 0.0025 g of thiamin hydrochloride in 500 mL of deionized water) at 37° C. for 48 hours. After incubation, 1 mL of E. coli cultures were taken from the surface of the broth and used to inoculate new broths that were incubated at 37° C. for 24 hours. After 24 hours, the bacterial cultures were centrifuged at 1800 g for 10 minutes to obtain bacterial pellets. The pellets were washed twice with 1x PBS+Ca^2+/Mg^2+ and then resuspended in 1 mL of PBS+Ca^2+/Mg^2+ to obtain the bacterial stock solutions. The optical density of the suspension was measure at 600 nm and bacterial cell densities (CFU/mL) were calculated using previously established bacterial growth curves for each strain of bacteria. […] The final concentration of each cuvette was 300 μg/mL of genistein equivalent and 5.0×10^8 CFU/mL in a total volume of 1 mL. The cuvettes were mixed via trituration and placed on an UV-Visible spectrophotometer equipped with an eight-position cuvette holder. The percent transmittance of light at 450 nm was measured every 1 min for 240 min. […] After 240 min, the area under the curve was calculated from the generated transmittance calibration curves.

H. pylori = conditions: 2 mg/L; cited from earlier work
[6] = test system: 3A9 T-cell hybridomas cocultured with mouse peritoneal macrophages; assay: IL-2 expression in 3A9 T-cell hybridomas cocultured with macrophages (ELISA); type: cell-based; conditions: 10 mg/mL
Protocol: Mouse peritoneal macrophages were resuspended in media and plated in 24-well cell-culture plates at a concentration of 1×10^8 cells/well. After 3 hours, the macrophages were attached and washed with DMEM media until cells other than macrophages were removed. Supplemented media (DMEM, 10% FBS, 2 mM of L-alanyl-L-glutamine, 100 U/mL of media penicillin and 100 U/mL of media streptomycin) was added and the macrophages were incubated overnight at 37° C. and 5% CO2. The 3A9 T-cell hybridomas were maintained in DMEM supplemented with 10% FBS, 50 μg of gentamycin/mL media, 2 mM of L-alanyl-L-glutamine, 10 mM of HEPES buffer, 55 μM of 2-mercaptoethanol, and 1× non-essential amino acids. For experiments, media was removed from the macrophages and rinsed once with PBS. […] The media was removed, and cells washed once with PBS. The T-cell hybridomas (concentration equals 2× the number of macrophages) in 3A9 media (without phenol red) were added to the macrophages and incubated for 24 hours. Media was removed, placed in microfuge tubes, centrifuged for 4 minutes at 15,000×g, and IL-2 was measured by an ELISA kit (555148, BD Biosciences). Data were expressed as pg of IL-2/mL media.

[7] = HEL release from AgriCell in PBS; type: physicochemical; conditions: PBS pH 7.3, 37° C.
Protocol: Samples were incubated at 37° C. under mild shaking. After 15, 30, 45, 60, 90, 120, 180, and 240 minutes, the tubes were given a spin-off and samples of 250 μL of the supernatant were taken. These samples were replaced by PBS (pH 7.3). The non-encapsulated HEL in PBS was determined with the Lowry protein assay and AgriCell-encapsulated HEL was determined by arithmetic differential calculation.

[8] = AI 100 mg/mL encapsulated into AgriCell (FIG. 4B)
[9] = EO 200 mg/mL encapsulated into AgriCell (FIG. 4A)

Row | Molecule | percentages of degradation [3] | encapsulation efficacy [4, 8] | encapsulation efficacy [4, 9] | autoxidatively degraded (degradation rates) [5] | existence (remained/not damaged) [5] | also measured
1 | CC(C)=CCCC(C)=CC=O [citral] |  |  |  |  |  | concentration in growth media that reduced the concentration of E. coli (E. coli): more than 0.01%; concentration with bactericidal effect (E. coli): 0.08%
2 | C=CCc1ccc(O)c(OC)c1 [eugenol] | 17.3% | 91.1% | 95.5% | 82.7% | 17.3% | inhibition at 200 µg/mL [1]: < 60%; inhibition at 200 µg/mL [2]: < 80%
3 | O=c1c(-c2ccc(O)cc2)coc2cc(O)cc(O)c12 [genistein] |  | 83.6% |  |  |  | lag phase of agglutination curve (E. coli strain ATCC 8739): about 25 minutes
4 | CC(C)=CCC/C(C)=C/CO [geraniol] |  |  |  |  |  | growth of H. pylori in vitro (H. pylori): inhibited the growth
5 | Cc1ccc(C(C)C)c(O)c1 [thymol] | 20.9% |  | 91.8% | 55.8% | 44.2% | 
6 | HEL: hen egg-white lysozyme, model protein antigen, 14.7 kDa |  |  |  |  |  | preincubation time to maximum IL-2 expression [6]: > 10 h; HEL released, initial burst stage ([7]; 15 minutes): 89.2%; HEL released ([7]; 240 minutes): 100.1%
